This assay has as its system P388 leukemia ip, CD2F1 mice, survival T/C. As to the kind of experiment: NCI In Vivo Anticancer Drug Screen. Data for tumor model P388 Leukemia (intraperitoneal) in CD2F1 (CDF1) mice. The settings on record: endpoint: median survival time, higher = longer survival. The method, boiled down:
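Mice carrying the transplanted tumor received test compound or vehicle. Survival was recorded in each group, and the value is the treated-group measurement divided by that of the vehicle-treated control group.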

Where [1] appears, read: dose: 50.0 mg/kg/injection, schedule: Q01DX009 (ip), vehicle: saline with Tween-80.
Setting [2] is: dose: 100.0 mg/kg/injection, schedule: Q01DX009 (ip), vehicle: saline with Tween-80.
[3] abbreviates: dose: 100.0 mg/kg/injection, schedule: Q01DX001 (ip), vehicle: saline with Tween-80.
The mark [4] stands for this setting: dose: 200.0 mg/kg/injection, schedule: Q01DX001 (ip), vehicle: saline with Tween-80.
The mark [5] stands for this setting: dose: 60.0 mg/kg/injection, schedule: Q01DX005 (ip), vehicle: saline with Tween-80.
The mark [6] stands for this setting: dose: 120.0 mg/kg/injection, schedule: Q01DX005 (ip), vehicle: saline with Tween-80.
The mark [7] stands for this setting: dose: 25.0 mg/kg/injection, schedule: Q01DX009 (ip), vehicle: Klucel (hydroxypropylcellulose) (HPC).
[8] abbreviates: dose: 100.0 mg/kg/injection, schedule: Q01DX009 (ip), vehicle: Klucel (hydroxypropylcellulose) (HPC).
The mark [9] stands for this setting: dose: 100.0 mg/kg/injection, schedule: Q01DX009 (ip), vehicle: saline.
Where [10] appears, read: dose: 50.0 mg/kg/injection, schedule: Q01DX005 (ip), vehicle: Klucel (hydroxypropylcellulose) (HPC).
[11] abbreviates: dose: 100.0 mg/kg/injection, schedule: Q01DX005 (ip), vehicle: Klucel (hydroxypropylcellulose) (HPC).
The mark [12] stands for this setting: dose: 200.0 mg/kg/injection, schedule: Q01DX005 (ip), vehicle: Klucel (hydroxypropylcellulose) (HPC).
Where [13] appears, read: dose: 50.0 mg/kg/injection, schedule: Q01DX005 (ip), vehicle: saline.

The source of these data is PubChem BioAssay AID330 (DTP/NCI, 2004).

Toxic doses and inconclusive results are not listed.

In the case of `COC1=CC(=O)C2CC=C(C)C3CC(=O)OC1C23C` (centres undefined), the T/C runs as follows: (dose: 100.0 mg/kg/injection, schedule: Q04DX002 (ip), vehicle: Klucel (hydroxypropylcellulose) (HPC)) 100 % of control; (dose: 200.0 mg/kg/injection, schedule: Q04DX002 (ip), vehicle: Klucel (hydroxypropylcellulose) (HPC)) 95 % of control; (dose: 400.0 mg/kg/injection, schedule: Q04DX002 (ip), vehicle: Klucel (hydroxypropylcellulose) (HPC)) 98 % of control.
On to `COc1cccc(/C=N/C(=S)NC2(C)C3CCC(C3)C2(C)C)c1O` (centres undefined), for which the T/C runs as follows: (dose: 12.5 mg/kg/injection, schedule: Q01DX009 (ip), vehicle: olive oil, sesame oil, peanut oil) 105 % of control; (dose: 25.0 mg/kg/injection, schedule: Q01DX009 (ip), vehicle: olive oil, sesame oil, peanut oil) 102 % of control; (dose: 50.0 mg/kg/injection, schedule: Q01DX009 (ip), vehicle: olive oil, sesame oil, peanut oil) 99 % of control; (dose: 100.0 mg/kg/injection, schedule: Q01DX009 (ip), vehicle: olive oil, sesame oil, peanut oil) 97 % of control; (dose: 200.0 mg/kg/injection, schedule: Q01DX009 (ip), vehicle: olive oil, sesame oil, peanut oil) 94 % of control; (dose: 400.0 mg/kg/injection, schedule: Q01DX009 (ip), vehicle: olive oil, sesame oil, peanut oil) 97 % of control.
As to `O=S1(=O)C(c2cccc(F)c2)=C(O)c2cc3ccccc3nc21`, the T/C was 104 % of control under setting [1]; 97 % of control under setting [2]; 104 % of control (dose: 200.0 mg/kg/injection, schedule: Q01DX009 (ip), vehicle: saline with Tween-80).
For `C/C=C/c1ccc(OC(C)C(=O)c2ccc3c(c2)OCO3)c(OC)c1` (centres undefined), the T/C runs as follows: (dose: 10.0 mg/kg/injection, schedule: Q01DX005 (ip), vehicle: Klucel (hydroxypropylcellulose) (HPC)) 108 % of control; (dose: 20.0 mg/kg/injection, schedule: Q01DX005 (ip), vehicle: Klucel (hydroxypropylcellulose) (HPC)) 101 % of control; (dose: 40.0 mg/kg/injection, schedule: Q01DX005 (ip), vehicle: Klucel (hydroxypropylcellulose) (HPC)) 101 % of control.
In the case of `CC1(C)OC(=O)C(C)(C2(O)C=CCCC2)O1` (centres undefined), the T/C by setting is: (dose: 100.0 mg/kg/injection, schedule: Q01DX001 (ip), vehicle: Klucel (hydroxypropylcellulose) (HPC)) 102 % of control; (dose: 200.0 mg/kg/injection, schedule: Q01DX001 (ip), vehicle: Klucel (hydroxypropylcellulose) (HPC)) 102 % of control; (dose: 400.0 mg/kg/injection, schedule: Q01DX001 (ip), vehicle: Klucel (hydroxypropylcellulose) (HPC)) 101 % of control.
Take `Cc1csc2cc(Br)c3ccccc3c12`: the T/C is 101 % of control under setting [3] and 103 % of control under setting [4].
`CCn1c2ccc(N)cc2c2c3ncc4cccn4c3ccc21`: the T/C is, setting by setting: under setting [5], 88 % of control; under setting [6], 87 % of control.
As for `O=[N+]([O-])c1ccc(Cl)nc1Sc1ncccn1`, the T/C (dose: 6.25 mg/kg/injection, schedule: Q01DX009 (ip), vehicle: Klucel (hydroxypropylcellulose) (HPC)) was 96 % of control; the T/C (dose: 12.5 mg/kg/injection, schedule: Q01DX009 (ip), vehicle: Klucel (hydroxypropylcellulose) (HPC)) was 91 % of control; the T/C under setting [7] was 104 % of control; the T/C under setting [8] is 95 % of control.
Consider `CCOC(CNN)OCC`, for which the T/C is 106 % of control under setting [9] and 91 % of control (dose: 200.0 mg/kg/injection, schedule: Q01DX009 (ip), vehicle: saline).
Consider `O=C(O)C1C2C=CC(C1C(=O)O)N(/C=C/c1ccccc1)C2=O` (centres undefined), for which the T/C (dose: 100.0 mg/kg/injection, schedule: Q04DX003 (ip), vehicle: Klucel (hydroxypropylcellulose) (HPC)) was 102 % of control; the T/C (dose: 200.0 mg/kg/injection, schedule: Q04DX003 (ip), vehicle: Klucel (hydroxypropylcellulose) (HPC)) is 91 % of control; the T/C (dose: 400.0 mg/kg/injection, schedule: Q04DX003 (ip), vehicle: Klucel (hydroxypropylcellulose) (HPC)) is 90 % of control.
In the case of `CN=C(NCCCOC)c1ccc(NC(=O)Nc2ccc(NC(=O)Nc3ccc(C(=NC)NCCCOC)cc3)cc2)cc1`, the T/C under setting [10] was 150 % of control.
For the compound `Cc1ccc(S(=O)(=O)N/N=C2\C(=N\NS(=O)(=O)c3ccc(C)cc3)C3c4ccccc4C2c2ccccc23)cc1`, the T/C runs as follows: under setting [5], 105 % of control; under setting [6], 96 % of control; (dose: 240.0 mg/kg/injection, schedule: Q01DX005 (ip), vehicle: saline with Tween-80) 95 % of control.
Turning to `CCn1c(=O)c2c(nc(Cl)n2C2OC(COC(C)=O)C(OC(C)=O)C(OC(C)=O)C2OC(C)=O)n(CC)c1=O` (centres undefined), the T/C is, setting by setting: under setting [7], 100 % of control; (dose: 50.0 mg/kg/injection, schedule: Q01DX009 (ip), vehicle: Klucel (hydroxypropylcellulose) (HPC)) 99 % of control; under setting [8], 99 % of control.
Consider `COc1cccc2c1C(=O)c1c(O)c3c(c(O)c1C2=O)CC(O)(C(=O)COC(C)C)CC3O` (centres undefined), for which the T/C is, setting by setting: (dose: 1.56 mg/kg/injection, schedule: Q01DX009 (ip), vehicle: other) 100 % of control; (dose: 3.13 mg/kg/injection, schedule: Q01DX009 (ip), vehicle: other) 100 % of control; (dose: 6.25 mg/kg/injection, schedule: Q01DX009 (ip), vehicle: other) 100 % of control; (dose: 12.5 mg/kg/injection, schedule: Q01DX009 (ip), vehicle: other) 103 % of control; (dose: 25.0 mg/kg/injection, schedule: Q01DX009 (ip), vehicle: other) 103 % of control.
In the case of `Cc1cc2nc3c(C(O)C(O)C(O)CO)nn(-c4ccc(F)cc4)c3nc2cc1C` (centres undefined), the T/C is 88 % of control under setting [10], 86 % of control under setting [11] and 93 % of control under setting [12].
For `OC(CC1CC2(CCN1)OCCO2)c1ccccc1` (centres undefined), the T/C (dose: 12.5 mg/kg/injection, schedule: Q01DX005 (ip), vehicle: saline) was 105 % of control; the T/C (dose: 25.0 mg/kg/injection, schedule: Q01DX005 (ip), vehicle: saline) was 105 % of control; the T/C under setting [13] was 108 % of control.
Take `OC1COCC2N3C(=NN12)Sc1ccccc13` (centres undefined): the T/C (dose: 100.0 mg/kg/injection, schedule: Q04DX003 (ip), vehicle: saline) was 105 % of control; the T/C (dose: 200.0 mg/kg/injection, schedule: Q04DX003 (ip), vehicle: saline) is 107 % of control; the T/C (dose: 400.0 mg/kg/injection, schedule: Q04DX003 (ip), vehicle: saline) is 98 % of control.
As for `COC(=O)Cn1/c(=N\N=C\c2ccc(OC)cc2)sc2ccccc21`, the T/C runs as follows: under setting [3], 101 % of control; under setting [4], 101 % of control; (dose: 400.0 mg/kg/injection, schedule: Q01DX001 (ip), vehicle: saline with Tween-80) 92 % of control.
On to `COc1ccc(C(=O)CCS(=O)O)cc1`, for which the T/C by setting is: (dose: 100.0 mg/kg/injection, schedule: Q04DX002 (ip), vehicle: saline) 100 % of control; (dose: 200.0 mg/kg/injection, schedule: Q04DX002 (ip), vehicle: saline) 100 % of control; (dose: 400.0 mg/kg/injection, schedule: Q04DX002 (ip), vehicle: saline) 99 % of control.
As to `C[N+](C)(C)CCCCCCN`, the T/C is, setting by setting: (dose: 50.0 mg/kg/injection, schedule: Q01DX009 (ip), vehicle: saline) 102 % of control; under setting [9], 97 % of control.
For `CC(C)(OC(=O)NC(CC(N)=O)C(=O)O)c1ccc(-c2ccccc2)cc1` (centres undefined), the T/C under setting [10] is 98 % of control, the T/C under setting [11] was 104 % of control and the T/C under setting [12] was 90 % of control.
With `Cn1c([N+](=O)[O-])cnc1-c1nc(/C=N/N2CCS(=O)(=O)CC2)cs1`, the T/C reads like this: (dose: 25.0 mg/kg/injection, schedule: Q01DX009 (ip), vehicle: saline with Tween-80) 96 % of control; under setting [1], 96 % of control; under setting [2], 90 % of control.
For `COc1cncn2c(C)nnc12`, the T/C under setting [13] is 100 % of control; the T/C (dose: 100.0 mg/kg/injection, schedule: Q01DX005 (ip), vehicle: saline) was 99 % of control; the T/C (dose: 200.0 mg/kg/injection, schedule: Q01DX005 (ip), vehicle: saline) was 94 % of control.
